# Test results from paper PMC3367954, “The Influence of pH on the Specific Adhesion of P Piliated Escherichia coli” (PLoS ONE, 2012).
# Molecular target: T1, PapG adhesin (isolated P pili) (Escherichia coli, UniProt P13720)
# T1 construct: gene papGI; native PapG at the tip of isolated P pili (rod of PapA), sheared from E. coli HB101/pPAP5, ammonium sulfate precipitated; PapG not purified separately
# Test: surface plasmon resonance (Biacore X100), isolated P pili over immobilised galabiose-BSA
# Format: binding
# Settings: galabiose as BSA conjugate (about 30 per BSA) on CM3 chip, BSA reference subtracted; citrate-phosphate buffer pH 3.5-8.0, 25 °C; multivalent
# T1 sequence (P13720 22-335): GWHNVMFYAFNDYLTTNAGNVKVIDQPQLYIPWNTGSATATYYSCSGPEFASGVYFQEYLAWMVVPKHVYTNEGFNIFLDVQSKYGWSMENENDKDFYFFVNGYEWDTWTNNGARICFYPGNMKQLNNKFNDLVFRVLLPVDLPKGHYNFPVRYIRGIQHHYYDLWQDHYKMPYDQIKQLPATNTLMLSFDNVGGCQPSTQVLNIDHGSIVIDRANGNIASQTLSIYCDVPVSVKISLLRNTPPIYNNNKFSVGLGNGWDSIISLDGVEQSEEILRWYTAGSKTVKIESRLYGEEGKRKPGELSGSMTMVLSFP
smiles,measurement,value
"OC[C@H]1O[C@H](O[C@@H]2[C@H](O)[C@@H](O)C(O)O[C@@H]2CO)[C@H](O)[C@@H](O)[C@H]1O (stereo partly drawn) [galabiose, α-D-Gal-(1–4)-β-D-Gal]","surface plasmon resonance (Biacore X100), isolated P pili over immobilised galab",the binding stability of both isolated pili and bacteria to galabiose-coated surfaces was high
